Results: patent publication US20230085307A1, “PYRIDAZINONE COMPOUND AND HERBICIDE” (NISSAN CHEMICAL CORPORATION, priority 2019, published 2023)

What was measured:
southern crabgrass = assay: Test Example 5: herbicidal effect by foliage application, plastic box (Table 20, symbol F); type: in vivo, southern crabgrass (Digitaria ciliaris); conditions: foliage application; for F: southern crabgrass, herbicidal effect (criteria 0-5): AAH 320 g/ha
How it was run: (§1)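 Foliar spray test: emulsion formulation diluted in water to a set application rate, sprayed onto 14-day-old plants raised in diluvial soil at 25° C to 30° C under glass. Both herbicidal effect and crop effect rated visually three weeks later.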

barnyard grass [1] = assay: Test Example 4: herbicidal effect by soil treatment (Table 19, symbol H); type: in vivo, barnyard grass (Echinochloa crus-galli)
How it was run: (§2)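 Step 1: sow seeds in sterilized diluvial soil, cover ~1.5 cm. Step 2: spray diluted emulsion onto soil surface at predetermined rate. Step 3: greenhouse, 25–30° C, three weeks. Step 4: grade effect on each plant by earlier criteria.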

oval-leafed pondweed = assay: Test Example 1: herbicidal activity, application before weed generation under submerged conditions (Table 16, symbol C); type: in vivo, oval-leafed pondweed (Monochoria vaginalis); conditions: 320 g/ha applied herbicide
How it was run: (§3)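 Emulsion formulation, water-diluted to set dose, was put onto the flooded surface (4 cm depth, alluvial soil) the same day weeds were sown and 2.5-leaf rice transplanted. After 3 weeks at 25-30 °C under glass, each species was rated 0 (≤5% kill) to 5 (≥90% kill).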

blackgrass = assay: Test Example 5: herbicidal effect by foliage application, plastic box (Table 20, symbol J); type: in vivo, blackgrass (Alopecurus myosuroides); conditions: foliage application; for J: blackgrass, herbicidal effect (criteria 0-5): AAH 320 g/ha
How it was run: as §1

late watergrass = assay: Test Example 1: herbicidal activity, application before weed generation under submerged conditions (Table 16, symbol A); type: in vivo, late watergrass (Echinochloa oryzicola); conditions: 320 g/ha applied herbicide
How it was run: as §3

green foxtail [2] = assay: Test Example 5: herbicidal effect by foliage application, plastic box (Table 20, symbol G); type: in vivo, green foxtail (Setaria viridis); conditions: foliage application; for G: green foxtail, herbicidal effect (criteria 0-5): AAH 320 g/ha
How it was run: as §1

green foxtail [3] = assay: Test Example 4: herbicidal effect by soil treatment (Table 19, symbol G); type: in vivo, green foxtail (Setaria viridis)
How it was run: as §2

redroot pigweed [4] = assay: Test Example 5: herbicidal effect by foliage application, plastic box (Table 20, symbol N); type: in vivo, redroot pigweed (Amaranthus retroflexus); conditions: foliage application; for N: redroot pigweed, herbicidal effect (criteria 0-5): AAH 320 g/ha
How it was run: as §1

barnyard grass [5] = assay: Test Example 3: herbicidal effect by foliage application, Wagner pot (Table 18, symbol H); type: in vivo, barnyard grass (Echinochloa crus-galli); conditions: for herbicidal effect on H: barnyard grass: amount of applied herbicide 320 g/ha; for herbicidal effect on H (barnyard grass), rating 0-5: 320 g/ha
How it was run: (§4)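 Plants were sown in alluvial soil held under 0.1–0.5 cm standing water and grown 14 days in a greenhouse at 25–30 °C. An emulsifiable formulation, water-diluted to the set dose, was then sprayed onto the foliage, and effects were scored three weeks later using previously defined criteria.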

Japanese bulrush = assay: Test Example 2: herbicidal activity, application during weed generation under submerged conditions (Table 17, symbol B); type: in vivo, Japanese bulrush (Schoenoplectus juncoides); conditions: AAH 320 g/ha; application during weed generation, submerged conditions
How it was run: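 Effect on each weed is rated three weeks post-treatment, using the same scoring criteria as the preceding test. Plants grow from mixed-sown seed in flooded alluvial soil (4 cm water) at 25° C. to 30° C., and are treated at one to two leaves with diluted emulsion dropped onto the water.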

chickweed [6] = assay: Test Example 5: herbicidal effect by foliage application, plastic box (Table 20, symbol P); type: in vivo, common chickweed (Stellaria media); conditions: foliage application; for P: chickweed, herbicidal effect (criteria 0-5): AAH 320 g/ha
How it was run: as §1

velvetleaf = assay: Test Example 4: herbicidal effect by soil treatment (Table 19, symbol M); type: in vivo, velvetleaf (Abutilon theophrasti)
How it was run: as §2

redroot pigweed [7] = assay: Test Example 4: herbicidal effect by soil treatment (Table 19, symbol N); type: in vivo, redroot pigweed (Amaranthus retroflexus)
How it was run: as §2

chickweed [8] = assay: Test Example 4: herbicidal effect by soil treatment (Table 19, symbol P); type: in vivo, common chickweed (Stellaria media)
How it was run: as §2

Italian ryegrass = assay: Test Example 5: herbicidal effect by foliage application, plastic box (Table 20, symbol K); type: in vivo, Italian ryegrass (Lolium multiflorum); conditions: foliage application; for K: Italian ryegrass, herbicidal effect (criteria 0-5): AAH 320 g/ha
How it was run: as §1

rice flat sedge = assay: Test Example 3: herbicidal effect by foliage application, Wagner pot (Table 18, symbol E); type: in vivo, rice flat sedge (Cyperus iria); conditions: for herbicidal effect on E: rice flat sedge: amount of applied herbicide 320 g/ha; for herbicidal effect on E (rice flat sedge), rating 0-5: 320 g/ha
How it was run: as §4

[9] = evaluated three weeks after application
[10] = amount of applied herbicide 320 g/ha
[11] = 320 g/ha, three weeks after application
[12] = 320 g/ha, evaluated three weeks after application

| Structure (SMILES) | F: southern crabgrass, herbicidal effect (criteria 0-5) (southern crabgrass; [9]) | herbicidal effect on H: barnyard grass (barnyard grass [1]; [10]) | Herbicidal effect on C: oval-leafed pondweed (grade 0-5) (oval-leafed pondweed) | J: blackgrass, herbicidal effect (criteria 0-5) (blackgrass; [9]) | Herbicidal effect on A: late watergrass (grade 0-5) (late watergrass) | G: green foxtail, herbicidal effect (criteria 0-5) (green foxtail [2]; [9]) | herbicidal effect on G: green foxtail (green foxtail [3]; [10]) | N: redroot pigweed, herbicidal effect (criteria 0-5) (redroot pigweed [4]; [9]) | herbicidal effect on H: barnyard grass (barnyard grass [5]) | herbicidal effect rating, B: Japanese bulrush (Japanese bulrush) | P: chickweed, herbicidal effect (criteria 0-5) (chickweed [6]; [9]) | herbicidal effect on M: velvetleaf (velvetleaf; [10]) | herbicidal effect on N: redroot pigweed (redroot pigweed [7]; [10]) | herbicidal effect on P: chickweed (chickweed [8]; [10]) | K: Italian ryegrass, herbicidal effect (criteria 0-5) (Italian ryegrass; [9]) | herbicidal effect on E: rice flat sedge (rice flat sedge) | herbicidal effect on H (barnyard grass), rating 0-5 (barnyard grass [5]) | herbicidal effect on E (rice flat sedge), rating 0-5 (rice flat sedge) | further results |
| --- | --- | --- | --- | --- | --- | --- | --- | --- | --- | --- | --- | --- | --- | --- | --- | --- | --- | --- | --- |
| Cc1nn(C)c(=O)c(-c2c(-c3ccc(OC(F)F)cc3)sc3ccc(F)cc23)c1OC(=O)C1CCCC1 [2-280] | 3 (Herbicidal rate of 40% or more and less than 70%) | 3 (Herbicidal rate of 40% or more and less than 70%) | 0 (Herbicidal rate of 5% or less (almost no effect)) | 5 (Herbicidal rate of 90% or more (almost completely withered)) | 5 (Herbicidal rate of 90% or more (almost completely withered)) | 4 (Herbicidal rate of 70% or more and less than 90%) | 2 (Herbicidal rate of 20% or more and less than 40%) | 5 (Herbicidal rate of 90% or more (almost completely withered)) | 5 (Herbicidal rate of 90% or more (almost completely withered)) | 3 (Herbicidal rate of 40% or more and less than 70%) | 5 (Herbicidal rate of 90% or more (almost completely withered)) | 3 (Herbicidal rate of 40% or more and less than 70%) | 5 (Herbicidal rate of 90% or more (almost completely withered)) | 1 (Herbicidal rate of 5% or more and less than 20%) | 5 (Herbicidal rate of 90% or more (almost completely withered)) | 4 (Herbicidal rate of 70% or more and less than 90%) | – | – | – |
| CCCC(=O)Oc1c(C)nn(C)c(=O)c1-c1c(-c2ccc(SC3CC3)cc2)sc2ccc(F)cc12 [2-255] | 5 (Herbicidal rate of 90% or more (almost completely withered)) | 0 (Herbicidal rate of 5% or less (almost no effect)) | 3 (Herbicidal rate of 40% or more and less than 70%) | 5 (Herbicidal rate of 90% or more (almost completely withered)) | 5 (Herbicidal rate of 90% or more (almost completely withered)) | 5 (Herbicidal rate of 90% or more (almost completely withered)) | 1 (Herbicidal rate of 5% or more and less than 20%) | 5 (Herbicidal rate of 90% or more (almost completely withered)) | 5 (Herbicidal rate of 90% or more (almost completely withered)) | 3 (Herbicidal rate of 40% or more and less than 70%) | 5 (Herbicidal rate of 90% or more (almost completely withered)) | 3 (Herbicidal rate of 40% or more and less than 70%) | 4 (Herbicidal rate of 70% or more and less than 90%) | 4 (Herbicidal rate of 70% or more and less than 90%) | 5 (Herbicidal rate of 90% or more (almost completely withered)) | 5 (Herbicidal rate of 90% or more (almost completely withered)) | – | – | – |
| CCCOc1ccc(-c2sc3ccccc3c2-c2c(O)c(C)nn(C)c2=O)cc1 [1-019] | – | – | 4 (Herbicidal rate of 70% or more and less than 90%) | – | 5 (Herbicidal rate of 90% or more (almost completely withered)) | – | – | – | – | 4 (Herbicidal rate of 70% or more and less than 90%) | – | – | – | – | – | – | 5 (Herbicidal rate of 90% or more (almost completely withered)) | 5 (Herbicidal rate of 90% or more (almost completely withered)) | herbicidal effect grade, F: southern crabgrass (southern crabgrass; [11]): 4 (Herbicidal rate of 70% or more and less than 90%); herbicidal effect rating, H: barnyard grass (barnyard grass [1]; [10]): 3 (Herbicidal rate of 40% or more and less than 70%); herbicidal effect grade, J: blackgrass (blackgrass; [11]): 4 (Herbicidal rate of 70% or more and less than 90%); herbicidal effect grade, G: green foxtail (green foxtail [2]; [11]): 5 (Herbicidal rate of 90% or more (almost completely withered)); herbicidal effect rating, G: green foxtail (green foxtail [3]; [10]): 2 (Herbicidal rate of 20% or more and less than 40%); herbicidal effect grade, N: redroot pigweed (redroot pigweed [4]; [11]): 5 (Herbicidal rate of 90% or more (almost completely withered)); herbicidal effect grade, P: chickweed (chickweed [6]; [11]): 5 (Herbicidal rate of 90% or more (almost completely withered)); herbicidal effect rating, M: velvetleaf (velvetleaf; [10]): 0 (Herbicidal rate of 5% or less (almost no effect)); herbicidal effect rating, N: redroot pigweed (redroot pigweed [7]; [10]): 4 (Herbicidal rate of 70% or more and less than 90%); herbicidal effect rating, P: chickweed (chickweed [8]; [10]): 5 (Herbicidal rate of 90% or more (almost completely withered)); herbicidal effect grade, K: Italian ryegrass (Italian ryegrass; [11]): 4 (Herbicidal rate of 70% or more and less than 90%) |
| Cc1nn(C)c(=O)c(-c2c(-c3ccc(OCc4ccccc4)cc3)sc3ccc(F)cc23)c1O [2-062] | – | – | 3 (Herbicidal rate of 40% or more and less than 70%) | – | 4 (Herbicidal rate of 70% or more and less than 90%) | – | – | – | – | 3 (Herbicidal rate of 40% or more and less than 70%) | – | – | – | – | – | – | 5 (Herbicidal rate of 90% or more (almost completely withered)) | 5 (Herbicidal rate of 90% or more (almost completely withered)) | herbicidal effect on F: southern crabgrass (southern crabgrass; [12]): 3 (Herbicidal rate of 40% or more and less than 70%); herbicidal effect rating, H: barnyard grass (barnyard grass [1]; 320 g/ha): 0 (Herbicidal rate of 5% or less (almost no effect)); herbicidal effect on J: blackgrass (blackgrass; [12]): 1 (Herbicidal rate of 5% or more and less than 20%); herbicidal effect on G: green foxtail (green foxtail [2]; [12]): 5 (Herbicidal rate of 90% or more (almost completely withered)); herbicidal effect rating, G: green foxtail (green foxtail [3]; 320 g/ha): 3 (Herbicidal rate of 40% or more and less than 70%); herbicidal effect on N: redroot pigweed (redroot pigweed [4]; [12]): 5 (Herbicidal rate of 90% or more (almost completely withered)); herbicidal effect on P: chickweed (chickweed [6]; [12]): 5 (Herbicidal rate of 90% or more (almost completely withered)); herbicidal effect rating, M: velvetleaf (velvetleaf; 320 g/ha): 1 (Herbicidal rate of 5% or more and less than 20%); herbicidal effect rating, N: redroot pigweed (redroot pigweed [7]; 320 g/ha): 4 (Herbicidal rate of 70% or more and less than 90%); herbicidal effect rating, P: chickweed (chickweed [8]; 320 g/ha): 0 (Herbicidal rate of 5% or less (almost no effect)); herbicidal effect on K: Italian ryegrass (Italian ryegrass; [12]): 1 (Herbicidal rate of 5% or more and less than 20%) |
| C=CCSCc1ccc(-c2sc3ccc(F)cc3c2-c2c(O)c(C)nn(C)c2=O)cc1 [2-323] | 5 (Herbicidal rate of 90% or more (almost completely withered)) | 0 (Herbicidal rate of 5% or less (almost no effect)) | 0 (Herbicidal rate of 5% or less (almost no effect)) | 4 (Herbicidal rate of 70% or more and less than 90%) | 4 (Herbicidal rate of 70% or more and less than 90%) | 5 (Herbicidal rate of 90% or more (almost completely withered)) | 3 (Herbicidal rate of 40% or more and less than 70%) | 5 (Herbicidal rate of 90% or more (almost completely withered)) | 5 (Herbicidal rate of 90% or more (almost completely withered)) | 0 (Herbicidal rate of 5% or less (almost no effect)) | 5 (Herbicidal rate of 90% or more (almost completely withered)) | 1 (Herbicidal rate of 5% or more and less than 20%) | 5 (Herbicidal rate of 90% or more (almost completely withered)) | 1 (Herbicidal rate of 5% or more and less than 20%) | 4 (Herbicidal rate of 70% or more and less than 90%) | 3 (Herbicidal rate of 40% or more and less than 70%) | – | – | – |
